Tests used:
[1] = in vitro release studies involving an aqueous environment (FIG. 2); type: physicochemical; details: dose 1.0 micrograms/mm^2
Description: (§1) Using the 1.0 micrograms/mm^2 dose as an exemplary embodiment, the effects of release rate were investigated. Metallic stents were coated with paclitaxel in a styrene-isobutylene based block copolymer carrier with the weight percent of paclitaxel in the carrier varying from approximately 8.8 to about 35%. The dose of drug applied to the stents was kept at 1.0 micrograms/mm^2, and the total drug dose was held constant by varying total coating weight.

[2] = biological response as a function of release rate from paclitaxel coated stent (FIGS. 2a-2c); type: in vivo; details: dose 1.0 micrograms/mm^2
Description: FIG. 2 and FIGS. 2a-2c illustrate the difference in biological response resulting from the difference in release rate from a paclitaxel coated stent.
as §1

[3] = tested on: healthy porcine arteries; details: dosing of approximately 1.0 micrograms/mm^2 in a polymer coating
Description: Paclitaxel coated metallic stents of various doses were implanted into healthy porcine arteries to determine the effect of dosage on biological response. Dosages used were approximately 4.0, 2.0, 1.0, and 0.6 micrograms per square millimeter of the stent surface area, corresponding to approximate total dosages of 345, 175, 85, and 50 micrograms per stent. The paclitaxel was contained within a styrene-isobutylene based block copolymer applied to the stent struts.

[4] = weight fraction less than about 35% in polymer carrier

CC(=O)O[C@H]1C(=O)[C@@]2(C)[C@H]([C@H](OC(=O)c3ccccc3)[C@]3(O)C[C@H](OC(=O)[C@H](O)[C@@H](NC(=O)c4ccccc4)c4ccccc4)C(C)=C1C3(C)C)[C@]1(OC(C)=O)CO[C@@H]1C[C@@H]2O [paclitaxel]
paclitaxel released within two days ([1]; 8.8% weight fraction in styrene-isobutylene based block copolymer carrier): about 2 micrograms | paclitaxel released within two days ([1]; 35% weight fraction in styrene-isobutylene based block copolymer carrier): approximately 45 micrograms | release profile over time ([1]; all curves in FIG. 2 (weight fractions 8.8 to 35%)): relatively rapid release rate over the first few days, followed by a slower, sustained release over up to about two weeks | paclitaxel released within ten days [1, 4]: less than 60 micrograms | paclitaxel released within two days [1, 4]: less than 45 micrograms | fibrin accumulation ([2]; fastest release rate (FIG. 2a)): noticeable fibrin accumulation | fibrin accumulation ([2]; slower release rates (FIGS. 2b and 2c)): did not result in this effect | safety and efficacy [3]: superior safety and efficacy

From patent US7906133B2, “Optimized dosing for drug coated stents” (Boston Scientific Scimed, Inc., priority 2002, dated 2011)
